Values after ≈ are worked out from the molar mass of the structure shown.
Assays:
Assay in all cases: Antibacterial assay, microtitration MIC (Test A)
Format in all cases: cell-based
S. pneumo SV-1 = conditions: Gram Positive Bacteria, strain SV-1; for MIC: read-out: Minimum Inhibitory Concentrations S. pneumo SV-1
Description: (§1) The compounds of the present invention were tested against an assortment of Gram-negative and Gram-positive organisms using standard microtitration techniques (Cohen et. al., Antimicrob., 1985;28:766; Heifetz, et. al., Antimicrob., 1974;6:124). The results of the evaluation are shown in Tables 1A and B, wherein “-” means no data.

E. faecalis MGH-2 = conditions: strain MGH-2; for Minimum Inhibitory Concentrations E. faecalis MGH-2: Gram Positive Bacteria; for MIC: Enterococcus faecalis, MGH2, Gram Positive Bacteria, read-out: Minimum Inhibitory Concentrations E. faecalis MGH-2
Description: as §1

S pyogenes C203 = conditions: Gram Positive Bacteria, strain C203; for MIC: read-out: Minimum Inhibitory Concentrations S pyogenes C203
Description: as §1

SMILES | MIC (S. pneumo SV-1) | MIC (E. faecalis MGH-2) | MIC (S pyogenes C203) | Minimum Inhibitory Concentrations S. pneumo SV-1 (S. pneumo SV-1) | Minimum Inhibitory Concentrations E. faecalis MGH-2 (E. faecalis MGH-2) | Minimum Inhibitory Concentrations S pyogenes C203 (S pyogenes C203)
Cc1c(N2CCC(C(C)O)C2)c(F)cc2c(=O)c(C(=O)O)cn(C3CC3)c12 (stereo not drawn) [drawing 346] | – | – | – | 0.06 µg/mL | 0.06 µg/mL | 0.06 µg/mL
COc1c(N2CCC(C(O)c3ccc(S(C)(=O)=O)o3)C2)c(F)cc2c(=O)c(C(=O)O)cn(C3CC3)c12 (stereo not drawn) [drawing 348] | 0.5 µg/mL (≈ 0.961 µM) | 0.5 µg/mL (≈ 0.961 µM) | 0.5 µg/mL (≈ 0.961 µM) | – | – | –
O=C(O)c1cn(C2CC2)c2nc(N3CCC(C(O)C(F)F)C3)c(F)cc2c1=O (stereo not drawn) [drawing 352] | 0.25 µg/mL (≈ 0.629 µM) | 0.125 µg/mL (≈ 0.315 µM) | 0.25 µg/mL (≈ 0.629 µM) | – | – | –
Cc1c(N2CCC(C(O)CO)C2)c(F)cc2c(=O)c(C(=O)O)cn(C3CC3)c12 (stereo not drawn) [drawing 356] | 1 µg/mL (≈ 2.56 µM) | 2 µg/mL (≈ 5.12 µM) | 1 µg/mL (≈ 2.56 µM) | – | – | –
Nc1nc(-n2cc(C(=O)O)c(=O)c3cc(F)c(N4CCC(C(O)CO)C4)c(Cl)c32)c(F)cc1F (stereo not drawn) [drawing 359] | 0.5 µg/mL (≈ 1 µM) | 0.5 µg/mL (≈ 1 µM) | 0.5 µg/mL (≈ 1 µM) | – | – | –
Cc1c(N2CCC(C(O)C(F)(F)F)C2)c(F)cc2c(=O)c(C(=O)O)cn(C3CC3)c12 (stereo not drawn) [drawing 364] | – | – | – | 0.125 µg/mL | 0.06 µg/mL | 0.5 µg/mL
Nc1c(F)c(N2CCC(C(O)C(F)(F)F)C2)c(F)c2c1c(=O)c(C(=O)O)cn2C1CC1 (stereo not drawn) [drawing 365] | 0.125 µg/mL (≈ 0.279 µM) | 0.06 µg/mL (≈ 0.134 µM) | 0.5 µg/mL (≈ 1.12 µM) | – | – | –
Nc1nc(-n2cc(C(=O)O)c(=O)c3cc(F)c(N4CCC(C(O)C(F)(F)F)C4)c(Cl)c32)c(F)cc1F (stereo not drawn) [drawing 366] | 0.5 µg/mL (≈ 0.931 µM) | 0.5 µg/mL (≈ 0.931 µM) | 1 µg/mL (≈ 1.86 µM) | – | – | –
O=C(O)c1cn(C2CC2)c2nc(N3CCC(C(O)C(F)(F)F)C3)c(F)cc2c1=O (stereo not drawn) [drawing 367] | 0.5 µg/mL (≈ 1.2 µM) | 0.25 µg/mL (≈ 0.602 µM) | 1 µg/mL (≈ 2.41 µM) | – | – | –
Cc1c(N2CCC(C(O)(CO)C(F)(F)F)C2)c(F)cc2c(=O)c(C(=O)O)cn(C3CC3)c12 (stereo not drawn) [drawing 371] | 0.25 µg/mL (≈ 0.545 µM) | 0.25 µg/mL (≈ 0.545 µM) | 0.25 µg/mL (≈ 0.545 µM) | – | – | –
CC(O)(CO)C1CCN(c2c(F)cc3c(=O)c(C(=O)O)cn(C4CC4)c3c2Cl)C1 (stereo not drawn) [drawing 372] | 0.25 µg/mL (≈ 0.588 µM) | 0.25 µg/mL (≈ 0.588 µM) | 0.25 µg/mL (≈ 0.588 µM) | – | – | –
COc1c(N2CCC(C)(C(O)CC(F)(F)F)C2)c(F)cc2c(=O)c(C(=O)O)cn(C3CC3)c12 (stereo not drawn) [drawing 376] | 0.125 µg/mL (≈ 0.265 µM) | 0.125 µg/mL (≈ 0.265 µM) | 0.25 µg/mL (≈ 0.529 µM) | – | – | –
COc1c(N2C[C@@H]3CC[C@@H](O)[C@@H]3C2)c(F)cc2c(=O)c(C(=O)O)cn(C3CC3)c12 [drawing 454] | 0.125 µg/mL (≈ 0.311 µM) | 0.125 µg/mL (≈ 0.311 µM) | 0.125 µg/mL (≈ 0.311 µM) | – | – | –
Nc1nc(-n2cc(C(=O)O)c(=O)c3cc(F)c(N4C[C@@H]5CC[C@@H](O)[C@@H]5C4)c(Cl)c32)c(F)cc1F [drawing 455] | 0.125 µg/mL (≈ 0.253 µM) | 0.25 µg/mL (≈ 0.505 µM) | 0.25 µg/mL (≈ 0.505 µM) | – | – | –
CC(=O)O[C@@H]1CC[C@H]2CN(c3c(F)cc4c(=O)c(C(=O)O)cn(-c5nc(N)c(F)cc5F)c4c3Cl)C[C@H]21 [drawing 456] | 0.125 µg/mL (≈ 0.233 µM) | 0.5 µg/mL (≈ 0.931 µM) | 0.5 µg/mL (≈ 0.931 µM) | – | – | –

Second part, led by results:

MIC (S. pneumo SV-1) | MIC (E. faecalis MGH-2) | MIC (S pyogenes C203) | SMILES | Minimum Inhibitory Concentrations S. pneumo SV-1 (S. pneumo SV-1) | Minimum Inhibitory Concentrations E. faecalis MGH-2 (E. faecalis MGH-2) | Minimum Inhibitory Concentrations S pyogenes C203 (S pyogenes C203)
0.125 µg/mL (≈ 0.29 µM) | 0.125 µg/mL (≈ 0.29 µM) | 0.25 µg/mL (≈ 0.58 µM) | O=C(O)c1cn(C2CC2)c2c(Cl)c(N3CCC(C(O)C(F)F)C3)c(F)cc2c1=O (stereo not drawn) [drawing 350] | – | – | –
0.06 µg/mL (≈ 0.116 µM) | 0.25 µg/mL (≈ 0.482 µM) | 0.125 µg/mL (≈ 0.241 µM) | Nc1nc(-n2cc(C(=O)O)c(=O)c3cc(F)c(N4CCC(C(O)C(F)F)C4)c(Cl)c32)c(F)cc1F (stereo not drawn) [drawing 351] | – | – | –
0.125 µg/mL (≈ 0.28 µM) | 0.25 µg/mL (≈ 0.56 µM) | 0.25 µg/mL (≈ 0.56 µM) | COc1c(N2CCC(C(O)C3(CO)CC3)C2)c(F)cc2c(=O)c(C(=O)O)cn(C3CC3)c12 (stereo not drawn) [drawing 353] | – | – | –
0.125 µg/mL (≈ 0.277 µM) | 0.125 µg/mL (≈ 0.277 µM) | 0.125 µg/mL (≈ 0.277 µM) | O=C(O)c1cn(C2CC2)c2c(Cl)c(N3CCC(C(O)C4(CO)CC4)C3)c(F)cc2c1=O (stereo not drawn) [drawing 354] | – | – | –
0.06 µg/mL (≈ 0.146 µM) | 0.06 µg/mL (≈ 0.146 µM) | 0.03 µg/mL (≈ 0.073 µM) | O=C(O)c1cn(C2CC2)c2c(Cl)c(N3CCC(C(O)CO)C3)c(F)cc2c1=O (stereo not drawn) [drawing 357] | – | – | –
0.06 µg/mL (≈ 0.129 µM) | 0.125 µg/mL (≈ 0.269 µM) | 0.125 µg/mL (≈ 0.269 µM) | Nc1nc(-n2cc(C(=O)O)c(=O)c3cc(F)c(N4CCC(C(O)CO)C4)cc32)c(F)cc1F (stereo not drawn) [drawing 358] | – | – | –
0.06 µg/mL (≈ 0.135 µM) | 0.06 µg/mL (≈ 0.135 µM) | 0.125 µg/mL (≈ 0.281 µM) | COc1c(N2CCC(C(O)C(F)(F)F)C2)c(F)cc2c(=O)c(C(=O)O)cn(C3CC3)c12 (stereo not drawn) [drawing 362] | – | – | –
0.03 µg/mL (≈ 0.0745 µM) | 0.06 µg/mL (≈ 0.149 µM) | 0.03 µg/mL (≈ 0.0745 µM) | COc1c(N2CC(CO)C3(CC3)C2)c(F)cc2c(=O)c(C(=O)O)cn(C3CC3)c12 (stereo not drawn) [drawing 429] | – | – | –
0.03 µg/mL (≈ 0.0737 µM) | 0.06 µg/mL (≈ 0.147 µM) | 0.06 µg/mL (≈ 0.147 µM) | O=C(O)c1cn(C2CC2)c2c(Cl)c(N3CC(CO)C4(CC4)C3)c(F)cc2c1=O (stereo not drawn) [drawing 430] | – | – | –

Reference: patent publication US20050107423A1, “Quinolone antibacterial agents” (priority 2003, published 2005)
